From BindingDB's records for doi:10.1021/jm049768a (Eli Lilly, 2004)

target: 3-phosphoinositide-dependent protein kinase 1 (Homo sapiens) (UniProt O15530); assay: Inhibition of human PDK-1

Row | IC50 | Structure (SMILES)
1 | 4.3 µM | O=C1NC(=O)C(c2cnc3ccccn23)=C1c1cn2c3c(cccc13)CN(C(=O)N1CCCCC1)CC2 [3-Imidazo[1,2-a]pyridin-3-yl-4-[2-(piperidine-1-carbonyl)-1,2,3,4-tetrahydro-[1,4]diazepino[6,7,1-hi]indol-7-yl]-pyrrole-2,5-dione]
2 | > 20 µM | CN(C)C(=O)N1CCn2cc(C3=C(c4cnc5ccccn45)C(=O)NC3=O)c3cccc(c32)C1 [7-(4-Imidazo[1,2-a]pyridin-3-yl-2,5-dioxo-2,5-dihydro-1H-pyrrol-3-yl)-3,4-dihydro-1H-[1,4]diazepino[6,7,1-hi]indole-2-carboxylic acid dimethylamide]
3 | 6.5 µM | CC(C)OC(=O)N1CCn2cc(C3=C(c4cnc5ccccn45)C(=O)NC3=O)c3cccc(c32)C1 [7-(4-Imidazo[1,2-a]pyridin-3-yl-2,5-dioxo-2,5-dihydro-1H-pyrrol-3-yl)-3,4-dihydro-1H-[1,4]diazepino[6,7,1-hi]indole-2-carboxylic acid isopropyl ester]
